Source: patent US20260042764A1, “COMPOSITIONS AND METHODS FOR INHIBITION OF KRAS” (TheRas, Inc., priority 2022, published 2026)

Assays:
[1] = target: T1, Avi-KRAS G12D (1-169) GppNHp/RAF1 RBD-3xFLAG (52-151) (Homo sapiens, UniProt P01116, G12D); test: Raf1-KRAS G12D-GppNHP disruption HTRF assay (Biological Example 1); format: binding; conditions: KRAS G12D-GppNHp/RAF1 RBD HTRF
T1 construct: Avi-KRAS G12D (1-169)
Summary of the method: (§1)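 Read-out is HTRF signal of the KRAS–RAF1 RBD complex, reported as percentage of activity relative to DMSO (100%). Protein mix and detection reagents each incubated 1 h at room temperature with 700 rpm shaking. Buffer: 50 mM Tris pH 7.5, 100 mM NaCl, 5 mM MgCl2, 0.1% BSA, 0.01% Tween, 10% DMSO.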

[2] = target: T2, Avi-KRAS G12R (1-169) GppNHp/RAF1 RBD-3xFLAG (52-151) (Homo sapiens, UniProt P01116, G12R); test: Raf1-KRAS G12R-GppNHP disruption HTRF assay (Biological Example 1); format: binding; conditions: KRAS G12R-GppNHp/RAF1 RBD HTRF
T2 construct: Avi-KRAS G12R (1-169)
Summary of the method: as §1

[3] = target: T3, Avi-KRAS G12V (1-169) GppNHp/RAF1 RBD-3xFLAG (52-151) (Homo sapiens, UniProt P01116, G12V); test: Raf1-KRAS G12V-GppNHP disruption HTRF assay (Biological Example 1); format: binding; conditions: KRAS G12V-GppNHp/RAF1 RBD HTRF
T3 construct: Avi-KRAS G12V (1-169)
Summary of the method: as §1

GP2d cells (KRAS G12D) = test: Cell-based pERK HTRF assay in GP2d cell (Biological Example 2); conditions: GP2d, GP2d (KRAS G12D) cells
Summary of the method: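 Cells grown in DMEM with 10% FBS were exposed to compound for 60 min at 0.25% DMSO, using a 9-point half-log series starting at 1 μM or 100 nM. Lysates were then mixed with d2 and Eu cryptate antibodies for 4–24 h at room temperature, and pERK was read by HTRF.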

[4] = target: T4, Avi-KRAS G12C (2-169) GTP/RAF1 RBD-3xFLAG (51-131) (Homo sapiens, UniProt P01116, G12C); test: Raf1-KRAS G12C-GTP disruption HTRF assay (Biological Example 3); format: binding; conditions: KRAS G12C, GTP-loaded
T4 construct: Avi-KRAS G12C (2-169)
Summary of the method: (§2)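 An HTRF assay measured disruption of 50 nM Avi-KRAS (2-169)-GTP (WT, G12C, G12D or G12V) bound to RAF1 RBD-3xFLAG (51-131). Buffer was Tris pH 7.5 with 5 mM MgCl2 and 10% DMSO. Compounds (30–0.005 μM, 3-fold, 10 points) were incubated 1 h at room temperature, and activity is given as % of DMSO.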

[5] = target: T5, Avi-KRAS WT (2-169) GTP/RAF1 RBD-3xFLAG (51-131) (Homo sapiens, UniProt P01116); test: Raf1-KRAS WT-GTP disruption HTRF assay (Biological Example 3); format: binding; conditions: KRAS WT, GTP-loaded
T5 construct: Avi-KRAS WT (2-169)
Summary of the method: as §2

T2 sequence (P01116 1-169 isoform P01116-2 G12R): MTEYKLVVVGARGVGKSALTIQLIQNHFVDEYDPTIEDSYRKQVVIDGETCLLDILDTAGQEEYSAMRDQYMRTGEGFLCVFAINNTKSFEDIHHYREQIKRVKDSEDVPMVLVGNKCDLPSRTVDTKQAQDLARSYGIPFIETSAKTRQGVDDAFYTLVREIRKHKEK
T1 sequence (P01116 1-169 isoform P01116-2 G12D): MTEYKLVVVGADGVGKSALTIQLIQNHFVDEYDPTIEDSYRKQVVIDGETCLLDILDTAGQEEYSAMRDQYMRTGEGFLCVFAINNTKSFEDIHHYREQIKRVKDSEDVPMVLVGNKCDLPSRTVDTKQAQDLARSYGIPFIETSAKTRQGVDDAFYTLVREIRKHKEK
T5 sequence (P01116 2-169 isoform P01116-2): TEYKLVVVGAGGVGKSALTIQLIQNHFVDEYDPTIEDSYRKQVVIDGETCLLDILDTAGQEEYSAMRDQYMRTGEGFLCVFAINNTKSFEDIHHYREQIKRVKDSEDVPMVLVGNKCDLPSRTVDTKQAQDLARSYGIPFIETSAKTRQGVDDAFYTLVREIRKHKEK
T3 sequence (P01116 1-169 isoform P01116-2 G12V): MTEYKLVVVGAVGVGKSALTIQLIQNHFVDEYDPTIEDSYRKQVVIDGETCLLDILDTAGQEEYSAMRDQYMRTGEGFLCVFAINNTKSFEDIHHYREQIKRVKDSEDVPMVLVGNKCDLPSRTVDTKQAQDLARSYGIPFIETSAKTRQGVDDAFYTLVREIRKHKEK
T4 sequence (P01116 2-169 isoform P01116-2 G12C): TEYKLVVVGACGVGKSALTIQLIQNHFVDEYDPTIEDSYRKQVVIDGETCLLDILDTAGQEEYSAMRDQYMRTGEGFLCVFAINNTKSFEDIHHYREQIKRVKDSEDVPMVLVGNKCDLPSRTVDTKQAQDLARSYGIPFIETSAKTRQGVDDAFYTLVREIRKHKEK

Structure (SMILES) | IC50 [1] | IC50 [2] | IC50 [3] | IC50 (GP2d cells (KRAS G12D)) | IC50 (GP2d cells (KRAS G12D); pERK HTRF) | IC50 [4] | IC50 [5]
CCN(c1nc(OC[C@@]23CCCN2C[C@H](F)C3)nc2c(F)c(-c3ccc(F)c4sc(N)c(C#N)c34)c(C(F)(F)F)cc12)C1C[C@@H](C)N(C(=O)C2CC2)C1 (stereo partly shown) [Compound 516] | < 100 nM | < 100 nM | 100 to 1000 nM | < 100 nM | < 100 nM | 100 to 1000 nM | 100 to 1000 nM
CCN(c1nc(OC[C@@]23CCCN2C[C@H](F)C3)nc2c(F)c(-c3ccc(F)c4sc(N)c(C#N)c34)c(C(F)(F)F)cc12)[C@H]1C[C@H](C)N(C(=O)C2COC2)C1 (atropisomer, axis not shown) [Compound 539] | < 100 nM | < 100 nM | < 100 nM | < 100 nM | < 100 nM | 100 to 1000 nM | 100 to 1000 nM
CCN(c1nc(OC[C@@]23CCCN2C[C@H](F)C3)nc2c(F)c(-c3ccc(F)c4sc(N)c(C#N)c34)c(C(F)(F)F)cc12)[C@@H]1C[C@@H]2CCC(=O)N2C1 [Compound 511] | 100 to 1000 nM | 1000 to 10000 nM | 100 to 1000 nM | < 100 nM | < 100 nM | 1000 to 10000 nM | 100 to 1000 nM
CCN(c1nc(OC[C@@]23CCCN2C[C@H](F)C3)nc2c(F)c(-c3ccc(F)c4sc(N)c(C#N)c34)c(C(F)(F)F)cc12)[C@@H]1C[C@H](C)N(C(C)=O)C1 (atropisomer, axis not shown) [Compound 534] | 100 to 1000 nM | 100 to 1000 nM | 100 to 1000 nM | < 100 nM | < 100 nM | 100 to 1000 nM | 100 to 1000 nM
CN(C)C(=O)[C@@H]1CC[C@@H](N(C)c2nc(OC[C@@]34CCCN3C[C@H](F)C4)nc3c(F)c(-c4ccc(F)c5sc(N)c(C#N)c45)c(C(F)(F)F)cc23)C1 (atropisomer, axis not shown) [Compound 512] | 100 to 1000 nM | 100 to 1000 nM | 100 to 1000 nM | < 100 nM | < 100 nM | 100 to 1000 nM | 100 to 1000 nM
CCC(=O)N1C[C@H](N(CC)c2nc(OC[C@@]34CCCN3C[C@H](F)C4)nc3c(F)c(-c4ccc(F)c5sc(N)c(C#N)c45)c(C(F)(F)F)cc23)C[C@@H]1C (atropisomer, axis not shown) [Compound 533] | 100 to 1000 nM | 100 to 1000 nM | 100 to 1000 nM | < 100 nM | < 100 nM | 100 to 1000 nM | 100 to 1000 nM
CCN(c1nc(OC[C@@]23CCCN2C[C@H](F)C3)nc2c(F)c(-c3ccc(F)c4sc(N)c(C#N)c34)c(C(F)(F)F)cc12)[C@@H]1CC(=O)N(C2CC2)C1 [Compound 537] | < 100 nM | < 100 nM | < 100 nM | < 100 nM | < 100 nM | 100 to 1000 nM | 100 to 1000 nM
Cc1c(C(=O)N(C)C)nn2c1CN(c1nc(OC[C@@]34CCCN3C[C@H](F)C4)nc3c(F)c(-c4ccc(F)c5sc(N)c(C#N)c45)c(C(F)(F)F)cc13)CC2 [Compound 501] | < 100 nM | < 100 nM | 100 to 1000 nM | < 100 nM | < 100 nM | 100 to 1000 nM | 100 to 1000 nM
CCN(c1nc(OC[C@@]23CCCN2C[C@H](F)C3)nc2c(F)c(-c3ccc(F)c4sc(N)c(C#N)c34)c(C(F)(F)F)cc12)[C@H]1C[C@H]2COC(=O)N2C1 (atropisomer, axis not shown; (aS)) [Compound 518, 2-amino-4-((S)-4-(ethyl((6S,7aS)-3-oxotetrahydro-1H,3H-pyrrolo[1,2-c]oxazol-6-yl)amino)-8-fluoro-2-(((2R,7aS)-2-fluorotetrahydro-1H-pyrrolizin-7a(5H)-yl)methoxy)-6-(trifluoromethyl)quinazolin-7-yl)-7-fluorobenzo[b]thiophene-3-carbonitrile] | < 100 nM | < 100 nM | < 100 nM | < 100 nM | < 100 nM | ≤ 100 nM | ≤ 100 nM
CCN(c1nc(OC[C@@]23CCCN2C[C@H](F)C3)nc2c(F)c(-c3ccc(F)c4sc(N)c(C#N)c34)c(C(F)(F)F)cc12)[C@H]1CCN(C(=O)C(C)C)C1 (single isomer, unassigned) [Compound 469] | < 100 nM | < 100 nM | < 100 nM | < 100 nM | < 100 nM | ≤ 100 nM | ≤ 100 nM
